Source: PubChem BioAssay (NCI)
“And” between values parts separate entries of the source, which are not always exact repeats. Equal values may be shown once.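 Where inhibition never reached the appropriate level, the endpoint shown equals the highest concentration tested. Otherwise, values were interpolated linearly from a five-concentration, 48-hour dose response in 96-well plates. The concentration for 50% growth inhibition is given as GI50. The concentration for full growth arrest is given as TGI.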

What was measured:
Assay in all cases: NCI tumour cell line growth inhibition, 48 h
[1] = tested on: EKVX NSCLC
[2] = tested on: HCC-2998 colon
[3] = tested on: MDA-MB-435
[4] = tested on: NCI-H226 lung
[5] = tested on: NCI-H460 lung
[6] = tested on: OVCAR-5 ovarian
[7] = tested on: SF-539 CNS
[8] = tested on: SK-MEL-28 melanoma
[9] = tested on: SW-620 colon
[10] = tested on: TK-10 renal

Row | SMILES | GI50 [1] | TGI [1] [µM] | GI50 [2] | TGI [2] | GI50 [3] | TGI [3] | GI50 [4] | TGI [4] | GI50 [5] | TGI [5] | GI50 [6] | TGI [6] [µM] | GI50 [7] | TGI [7] | GI50 [8] | TGI [8] | GI50 [9] | TGI [9] | GI50 [10] | TGI [10]
1 | COc1ccc(C/C(=C(\C)c2ccc(OCCN3CCCC3)cc2)c2ccc(OCCN3CCCC3)cc2)cc1 | 2.21 µM | 5.89 | 1.74 µM | 3.19 µM | 1.7 µM | 3.24 µM | 2.54 µM | 7.64 µM | 2.08 µM | 4.17 µM | 1.8 µM | 3.72 | 1.8 µM | 3.25 µM | 1.82 µM | 3.3 µM | 1.75 µM | 3.65 µM | 1.55 µM | 3.02 µM
2 | Nc1ccc(C(=O)N/C(=C\c2cccc([N+](=O)[O-])c2)c2nc3[nH]c(=S)[nH]c(=O)c3[nH]2)cc1 | – | > 100 | – | > 100 µM | – | > 100 µM | – | > 96.7 µM | – | > 100 µM | – | > 100 | – | 67 µM | – | > 100 µM | – | > 100 µM | – | > 100 µM
3 | CC1=C(SCCC(=O)OC(C[Se]C2=C(C)C(=O)c3ccccc3C2=O)C(=O)NCCCCCC(=O)OCc2ccccc2)C(=O)c2ccccc2C1=O (stereo unspecified) | 3.62 µM | 17.8 | 6.52 µM | 18.5 µM | 2.13 µM | 13 µM | 19.5 µM | 51.3 µM | 1.9 µM | 4.54 µM | 5.05 µM | 18.7 | 4.49 µM | 15.3 µM | 11.9 µM | 24.7 µM | 2.43 µM | 9.34 µM | 13.8 µM | 27.2 µM
4 | NCCCC[C@@H]1NC(=O)[C@H](CC(=O)O)NC(=O)CNC(=O)[C@H](CCCN=C(N)N)NC(=O)[C@@H](N)CSSC[C@@H](C(=O)O)NC(=O)[C@H](CC(=O)O)NC(=O)[C@@H]2CCCN2C(=O)CNC1=O | > 100 µM | > 100 | > 100 µM | > 100 µM | > 100 µM | > 100 µM | > 100 µM | > 100 µM | > 100 µM | > 100 µM | > 100 µM | > 100 | > 100 µM | > 100 µM | > 100 µM | > 100 µM | > 100 µM | > 100 µM | > 100 µM | > 100 µM
5 | CCOC(=O)Oc1cc2c(c(OC)c1OC)-c1ccc(OC)c(=O)cc1C(NC(C)=O)CC2 (stereo unspecified) | – | > 100 | – | 0.683 µM | – | 0.0168 µM | – | 0.787 µM | – | 6.67 µM | – | > 100 | – | 0.232 µM | – | > 100 µM | – | > 100 µM | – | > 100 µM
6 | Cc1ccc(S(=O)(=O)SC(C)(C)C)cc1 | – | > 63.9 | – | > 58.7 µM | – | 77.6 µM | – | > 100 µM | – | > 100 µM | – | > 76 | – | > 77.8 µM | – | > 100 µM | – | 47.9 µM | – | > 100 µM
7 | CC(C)(C)c1ccc(Oc2ccc(N)cn2)cc1 | 28.2 µM | > 100 | > 100 µM | > 100 µM | 72.9 µM | > 100 µM | 44.5 µM | > 100 µM | 72.3 µM | > 100 µM | > 100 µM | > 100 | 18.8 µM | > 100 µM | 75.9 µM | > 100 µM | > 100 µM | > 100 µM | > 100 µM | > 100 µM
8 | C=C/C=C/[C@@H](O)CC(=C)C[C@H]1OC2[C@H](C)[C@@H](OC(=O)C[C@H]3C[C@H](OC(C)=O)C[C@@]4(C[C@@](C)(O)C[C@H](CC(=C)[C@@H](C)[C@H](OC(C)=O)[C@H](C)C(=O)C[C@@H]5C[C@H](OC)CC6(C[C@@H](O)C[C@H](/C=C\CCC[C@H]7O[C@](O)(C=C[C@H]7C)[C@H]2O)O6)O5)O4)O3)[C@@H]1O | – | > 25 | 0.000591 µM and < 0.0025 µM | 0.00272 µM and < 0.0025 µM | < 0.0025 µM | < 0.0025 µM | 0.000503 µM and 0.0025 µM | – | 0.000798 µM and 0.0025 µM | 0.00529 µM | 0.00293 µM and 0.0025 µM | > 25 | < 0.0025 µM | < 0.0025 µM | – | > 25 µM | 0.00123 µM and 0.0025 µM | > 25 µM | 0.00162 µM and 0.0025 µM | –
9 | CCN(CC)CCCNc1cc(OC)cc2nc3cc(Cl)ccc3nc12 | 3.04 µM | 14.1 | 1.47 µM | 2.92 µM | 1.87 µM | 3.97 µM | 1.48 µM | 3.76 µM | 1.83 µM | 10.3 µM | 3.56 µM | 16.3 | 8.36 µM | 21.7 µM | 1.79 µM | 3.21 µM | 0.779 µM | 11.2 µM | 1.85 µM | 5.8 µM
10 | CC1C(C)N(C(=O)CCl)c2ccccc2N1C(=O)CCl (stereo unspecified) | 0.941 µM | 2.42 | 1.69 µM | 3.23 µM | 0.276 µM | 0.939 µM | 1.11 µM | 3.52 µM | 1.74 µM | 3.98 µM | 0.896 µM | 2.57 | 1.4 µM | 2.89 µM | 0.838 µM | 2.9 µM | 0.209 µM | 0.485 µM | 0.78 µM | 2.04 µM
11 | O=S(=O)(NNc1ccccc1)c1ccccc1 | – | 31.9 | – | > 100 µM | – | 21.3 µM | – | 18.5 µM | – | 21.2 µM | – | > 100 | – | > 100 µM | – | > 100 µM | – | > 100 µM | – | > 100 µM
12 | CNC(=O)c1cc(Oc2ccc(NC(=O)Nc3ccc(Cl)c(C(F)(F)F)c3)c(F)c2)ccn1 | 2.96 µM and 2.68 µM | > 44 | 2.44 µM and 1.9 µM | 10.4 µM and 8.17 µM | 1.56 µM and 1.52 µM | 4.8 µM and 4.85 µM | 2.15 µM and 0.988 µM | 8.01 µM and 8.05 µM | 2.67 µM and 2.86 µM | 9.42 µM and > 10 µM | 2.68 µM and 2.3 µM | > 44.4 | 2.15 µM and 1.45 µM | 10.7 µM and > 10 µM | 1.57 µM and 1.3 µM | 6.28 µM and 8.13 µM | 2.23 µM and 2.47 µM | 14.9 µM and > 10 µM | 3.5 µM and 3.03 µM | 27.8 µM and > 10 µM
13 | COc1ccc2c(c1)c(-c1nc(-c3c[nH]c4ccncc34)cs1)cn2C | 1.76 µM | 3.4 | 1.85 µM | 3.35 µM | 1.59 µM | 2.96 µM | 1.88 µM | 3.9 µM | 1.73 µM | 3.31 µM | 1.64 µM | 3.06 | 1.65 µM | 3.09 µM | 1.63 µM | 3.04 µM | 1.75 µM | 3.27 µM | 1.88 µM | 3.39 µM
